Test results reported in patent publication US20190134005A1 (BioMarin Pharmaceutical Inc., priority 2016, published 2019).

Biological target: T1, human CGT (Homo sapiens, UniProt Q16880)
T1 sequence (Q16880 21-541): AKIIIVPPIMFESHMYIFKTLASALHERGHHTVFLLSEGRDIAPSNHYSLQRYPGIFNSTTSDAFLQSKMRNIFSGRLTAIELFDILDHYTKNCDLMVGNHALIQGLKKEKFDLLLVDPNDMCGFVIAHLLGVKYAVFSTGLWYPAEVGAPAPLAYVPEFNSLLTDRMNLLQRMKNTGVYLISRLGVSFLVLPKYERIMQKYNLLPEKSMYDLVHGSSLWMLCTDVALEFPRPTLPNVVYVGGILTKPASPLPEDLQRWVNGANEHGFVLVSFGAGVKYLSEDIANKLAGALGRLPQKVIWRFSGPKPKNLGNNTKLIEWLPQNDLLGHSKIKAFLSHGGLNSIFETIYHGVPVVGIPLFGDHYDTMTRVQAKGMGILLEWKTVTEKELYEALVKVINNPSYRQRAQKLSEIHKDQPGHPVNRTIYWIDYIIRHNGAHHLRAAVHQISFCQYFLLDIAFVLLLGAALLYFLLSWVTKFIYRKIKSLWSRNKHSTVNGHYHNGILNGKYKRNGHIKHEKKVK
Assay: Assay 1: CGT Enzymatic Assay (RapidFire/MS/MS, 0.01% Tween 80)
Type: biochemical
Settings: Table 1, Compounds of Formula (I) and Formula (II); CGT enzymatic assay; read-out: IC50

IC50 [µM] | Structure (SMILES)
< 1 | O=C1N(c2ccc(Br)cc2)CC(O)(c2cccc(C(F)(F)F)c2)N1c1ccc(Br)cc1 (stereo not shown) [Example 31, 1,3-bis(4-bromophenyl)-4-hydroxy-4-(3-(trifluoromethyl)phenyl)imidazolidin-2-one]
10 to 50 | Cc1cc(C)cc(C2(O)CN(c3ccc(Br)cc3)C(=O)N2c2ccc(Br)cc2)c1 (stereo not shown) [Example 33, 1,3-bis(4-bromophenyl)-4-(3,5-dimethylphenyl)-4-hydroxyimidazolidin-2-one]
1 to 10 | Cc1cccc(C2(O)CN(c3ccc(Cl)cc3)C(=O)N2c2ccc(Cl)cc2)c1 (stereo not shown) [Example 34, 1,3-bis(4-chlorophenyl)-4-hydroxy-4-(m-tolyl)imidazolidin-2-one]
< 1 | Cc1cccc(C2(O)[C@H](C)N(c3ccc(Cl)cc3)C(=O)N2c2ccc(Cl)cc2)c1 (stereo partly shown) [Example 36-1]
1 to 10 | Cc1cccc(C2(O)[C@@H](C)N(c3ccc(Cl)cc3)C(=O)N2c2ccc(Cl)cc2)c1 (stereo partly shown) [Example 36-2]
1 to 10 | Cc1c(-c2cccc(C(C)O)c2)n(-c2ccc(Cl)cc2)c(=O)n1-c1ccc(Cl)cc1 (stereo not shown) [Example 37, 1,3-bis(4-chlorophenyl)-4-(3-(1-hydroxyethyl)phenyl)-5-methyl-1,3-dihydro-2H-imidazol-2-one]
10 to 50 | O=C1N(c2ccc(Cl)cc2)CC(O)(c2ccccc2)N1c1ccc(Br)cc1 (stereo not shown) [Example 38, 3-(4-bromophenyl)-1-(4-chlorophenyl)-4-hydroxy-4-phenylimidazolidin-2-one]
< 1 | O=C1N(c2ccc(Cl)cc2)CC(O)(c2cccc(Cl)c2)N1c1ccc(Cl)cc1 (stereo not shown) [Example 39, 4-(3-chlorophenyl)-1,3-bis(4-chlorophenyl)-4-hydroxyimidazolidin-2-one]
< 1 | COCc1c(-c2cccc(C(F)(F)F)c2)n(-c2ccc(Cl)cc2)c(=O)n1-c1ccc(Cl)cc1 [Example 41, 1,3-bis(4-chlorophenyl)-4-(methoxymethyl)-5-(3-(trifluoromethyl)phenyl)-1,3-dihydro-2H-imidazol-2-one]
< 1 | Cc1cc(C)cc(C2(O)[C@H](C)N(c3ccc(Br)cc3)C(=O)N2c2ccc(Br)cc2)c1 (stereo partly shown) [Example 42-1]
1 to 10 | Cc1cc(C)cc(C2(O)[C@@H](C)N(c3ccc(Br)cc3)C(=O)N2c2ccc(Br)cc2)c1 (stereo partly shown) [Example 42-2]
1 to 10 | O=C1N(c2ccc(Br)cc2)CC(O)(c2ccccc2)N1c1ccc(Cl)cc1 (stereo not shown) [Example 43, 1-(4-bromophenyl)-3-(4-chlorophenyl)-4-hydroxy-4-phenylimidazolidin-2-one]
1 to 10 | CCC1(O)C(c2ccccc2)N(c2ccc(Br)cc2)C(=O)N1c1ccc(Br)cc1 (stereo not shown) [Example 45]
< 1 | CC(C)c1c(-c2cccc(C#N)c2)n(-c2ccc(Br)cc2)c(=O)n1-c1ccc(Br)cc1 [Example 46, 3-(1,3-bis(4-bromophenyl)-5-isopropyl-2-oxo-2,3-dihydro-1H-imidazol-4-yl)benzonitrile]
1 to 10 | CCc1cccc(C2(O)CN(c3ccc(Br)cc3)C(=O)N2c2ccc(Br)cc2)c1 (stereo not shown) [Example 47, 1,3-bis(4-bromophenyl)-4-(3-ethylphenyl)-4-hydroxyimidazolidin-2-one]
1 to 10 | C[C@@H]1N(c2ccc(Br)cc2)C(=O)N(c2ccc(Br)cc2)C1(O)c1cccs1 (stereo partly shown) [Example 49-1]
1 to 10 | C[C@H]1N(c2ccc(Br)cc2)C(=O)N(c2ccc(Br)cc2)C1(O)c1cccs1 (stereo partly shown) [Example 49-2]
< 1 | CC(C)c1c(-c2cccc(OC(F)(F)F)c2)n(-c2ccc(Cl)cc2)c(=O)n1-c1ccc(Cl)cc1 [Example 50]
50 to 100 | CCCCCCC1(O)C(=O)N(c2ccc(Br)cc2)C(=O)N1c1ccc(Br)cc1 (stereo not shown) [Example 157, 1,3-bis(4-bromophenyl)-5-hexyl-5-hydroxyimidazolidine-2,4-dione]
> 50 | O=C1N(c2ccc(F)cc2)C(=O)C(O)(c2ccccc2)N1c1ccc(F)cc1 (stereo not shown) [Example 161, 1,3-bis(4-fluorophenyl)-5-hydroxy-5-phenylimidazolidine-2,4-dione]
< 1 | CCC1(C)N(c2ccc(Cl)cc2)C(=O)N(c2ccc(Cl)cc2)C1(O)c1cccc(OC(F)(F)F)c1 (stereo not shown) [Example 163, 1,3-bis(4-chlorophenyl)-4-ethyl-5-hydroxy-4-methyl-5-(3-(trifluoromethoxy)phenyl)imidazolidin-2-one]

More lines, now with the values behind:

Structure (SMILES) | IC50 [µM]
O=C1N(c2ccc(Cl)c(Cl)c2)CC(O)(c2ccccc2)N1c1ccc(Cl)c(Cl)c1 (stereo not shown) [Example 32, 1,3-bis(3,4-dichlorophenyl)-4-hydroxy-4-phenylimidazolidin-2-one] | 1 to 10
O=C1N(c2ccc(Br)cc2)CC(O)(c2cccc(Cl)c2)N1c1ccc(Br)cc1 (stereo not shown) [Example 35, 1,3-bis(4-bromophenyl)-4-(3-chlorophenyl)-4-hydroxyimidazolidin-2-one] | 1 to 10
Cc1cccc(C2(O)C(C)N(c3ccc(Cl)cc3)C(=O)N2c2ccc(Cl)cc2)c1 (stereo not shown) [Example 36] | < 1
CCc1c(-c2cccc(C(F)(F)F)c2)n(-c2ccc(Cl)cc2)c(=O)n1-c1ccc(Cl)cc1 [Example 40, 1,3-bis(4-chlorophenyl)-4-ethyl-5-(3-(trifluoromethyl)phenyl)-1,3-dihydro-2H-imidazol-2-one] | < 1
Cc1cc(C)cc(C2(O)C(C)N(c3ccc(Br)cc3)C(=O)N2c2ccc(Br)cc2)c1 (stereo not shown) [Example 42] | < 1
CC(C)c1c(-c2cccc(C#N)c2)n(-c2ccc(Cl)cc2)c(=O)n1-c1ccc(Cl)cc1 [Example 44, 3-(1,3-bis(4-chlorophenyl)-5-isopropyl-2-oxo-2,3-dihydro-1H-imidazol-4-yl)benzonitrile] | < 1
CCC1(O)[C@H](c2ccccc2)N(c2ccc(Br)cc2)C(=O)N1c1ccc(Br)cc1 (stereo partly shown) [Example 45-1] | < 1
CCC1(O)[C@@H](c2ccccc2)N(c2ccc(Br)cc2)C(=O)N1c1ccc(Br)cc1 (stereo partly shown) [Example 45-2] | 10 to 50
N#Cc1cccc(-c2c(C3CC3)n(-c3ccc(Cl)cc3)c(=O)n2-c2ccc(Cl)cc2)c1 [Example 48, 3-(1,3-bis(4-chlorophenyl)-5-cyclopropyl-2-oxo-2,3-dihydro-1H-imidazol-4-yl)benzonitrile] | < 1
CC[C@]1(C)C(c2cccc(OC(F)(F)F)c2)N(c2ccc(C#N)cc2)C(=O)N1c1ccc(C#N)cc1 (stereo partly drawn) [Example 51-1, 4,4′-((4R)-4-ethyl-4-methyl-2-oxo-5-(3-(trifluoromethoxy)phenyl)imidazolidine-1,3-diyl)dibenzonitrile] | 1 to 10
COc1ccc(C2(O)CN(c3ccc(Br)cc3)C(=O)N2c2ccc(Br)cc2)cn1 (stereo not shown) [Example 54, 1,3-bis(4-bromophenyl)-4-hydroxy-4-(6-methoxypyridin-3-yl)imidazolidin-2-one] | > 50
O=C1N(c2ccc(Cl)cc2)CC(O)(c2cccc(Br)c2)N1c1ccc(Cl)cc1 (stereo not shown) [Example 55, 4-(3-bromophenyl)-1,3-bis(4-chlorophenyl)-4-hydroxyimidazolidin-2-one] | 1 to 10
CCC1(O)CN(c2ccc(Cl)cc2)C(=O)N1c1ccc(Cl)cc1 (stereo not shown) [Example 56, 1,3-bis(4-chlorophenyl)-4-ethyl-4-hydroxyimidazolidin-2-one] | > 50
O=C1N(c2ccc(Cl)cc2Cl)CC(O)(c2ccccc2)N1c1ccc(Cl)cc1Cl (stereo not shown) [Example 57, 1,3-bis(2,4-dichlorophenyl)-4-hydroxy-4-phenylimidazolidin-2-one] | > 50
CC1(C)N(c2ccc(Cl)cc2)C(=O)N(c2ccc(Cl)cc2)C1(O)c1cc(Br)cc(C#N)c1 (stereo not shown) [Example 158, 3-(1,3-bis(4-chlorophenyl)-4-hydroxy-5,5-dimethyl-2-oxoimidazolidin-4-yl)-5-bromobenzonitrile] | < 1
CC1(C(F)(F)F)N(c2ccc(Cl)cc2)C(=O)N(c2ccc(Cl)cc2)C1(O)c1cccc(OC(F)(F)F)c1 (stereo not shown) [Example 159, 1,3-bis(4-chlorophenyl)-4-hydroxy-5-methyl-4-(3-(trifluoromethoxy)phenyl)-5-(trifluoromethyl)imidazolidin-2-one] | < 1
COc1ccc(N2C(=O)N(c3ccc(OC)cc3)C(O)(c3ccccc3)C2=O)cc1 (stereo not shown) [Example 160, 5-hydroxy-1,3-bis(4-methoxyphenyl)-5-phenylimidazolidine-2,4-dione] | > 50
O=C1N(c2cccc(Cl)c2)C(=O)C(O)(c2ccccc2)N1c1cccc(Cl)c1 (stereo not shown) [Example 162, 1,3-bis(3-chlorophenyl)-5-hydroxy-5-phenylimidazolidine-2,4-dione] | 10 to 50
O=C1N(c2ccc(Br)cc2)C(=O)C(O)(c2ccc(OC3CC3)cc2)N1c1ccc(Br)cc1 (stereo not shown) [Example 164, 1,3-bis(4-bromophenyl)-5-(4-cyclopropoxyphenyl)-5-hydroxyimidazolidine-2,4-dione] | > 50
O=C1N(c2ccc(Cl)cc2)C2(CCC2)C(O)(c2cccc(OC(F)F)c2)N1c1ccc(Cl)cc1 (stereo not shown) [Example 165, 5,7-bis(4-chlorophenyl)-8-(3-(difluoromethoxy)phenyl)-8-hydroxy-5,7-diazaspiro[3.4]octan-6-one] | < 1
CN(C)CC1N(c2ccc(Cl)cc2)C(=O)N(c2ccc(Cl)cc2)C1(O)c1cccc(OC(F)(F)F)c1 (stereo not shown) [Example 166, 1,3-bis(4-chlorophenyl)-5-((dimethylamino)methyl)-4-hydroxy-4-(3-(trifluoromethoxy)phenyl)imidazolidin-2-one] | < 1
O=C1N(c2ccc(Br)cc2)C(=O)C(O)(c2ccc(OC3CCCC3)cc2)N1c1ccc(Br)cc1 (stereo not shown) [Example 167, 1,3-bis(4-bromophenyl)-5-(4-(cyclopentyloxy)phenyl)-5-hydroxyimidazolidine-2,4-dione] | 50 to 100
